Test system: HCV replicon

Cn1cnc([N+](=O)[O-])c1Sc1ncnc2[nH]cnc12 [AZA]
fewer cells (toxicity): ~10%
